Source: US10745408B2, “Biologically active taxane analogs and methods of treatment by oral administration” (Tapestry Pharmaceuticals, Inc., priority 2007, dated 2020)
Where two headings read alike, the source gives them in different places.

Assays:
KBV (MDR+) = test: MTS proliferation assay, head/neck KBV (MDR+); format: cell-based
Procedure: (§1) MTS Proliferation Assay (Promega)
(§2) Day 1: Cells were plated in appropriate growth medium at 5×10^3 per well in 100 ul in 96 well tissue culture plates, Falcon, one for each drug to be tested. Col 1 was blank; it contained no cells, just medium. The plates were incubated overnight at 37° C., 5% CO2 to allow attachment.
(§3) Day 2: Added 120 ul growth medium in wells of 96-well “dilution plates” (one for each drug) and let sit in 37° C. incubator for about 1 hr.
(§4) Thawed DMSO drug stocks (usually at 10 mM). Each drug was diluted 6 ul into a tube with 3 ml growth medium, to 20 μM.
(§5) Aspirated medium from col 12 of a dilution plate; added 200-300 ul of 20 uM drug to wells of col 12. Made serial dilution down this 96-well plate: for a […] dilution pattern, moved 60 ul from col 12 to col 11, mixed 4-5 times (using 8 place multi-pipettor), moved 60 ul to col 10, etc. stopping at col 3.
(§6) Moved 100 ul of medium+drug from dilution plate to a cell plate, i.e. col 1 from drug plate (blank=no cells) to col 1 of cell plate, etc. up to col 12. Col 2 contained cells with no drug. […]
(§7) Day 4 or 5: Terminated the assay 48 to 72 hrs after drug addition. […] When the color turned dark in control wells (col 2), and was still light in col 12, the absorbance at 490 nm was read on a plate reader; the results were used to calculate IC50.

MESSA = test: MTS proliferation assay, uterine MESSA; format: cell-based; settings: Homo sapiens, MES-SA
Procedure: as §1, §2, §3, §4, §5, §6, §7

FADU = test: MTS proliferation assay, head/neck FADU; format: cell-based; settings: Homo sapiens
Procedure: as §1, §2, §3, §4, §5, §6, §7

PC-3 = test: MTS proliferation assay, prostate PC-3; format: cell-based; settings: Homo sapiens
Procedure: as §1, §2, §3, §4, §5, §6, §7

MDA435s = test: MTS proliferation assay, breast MDA435s; format: cell-based
Procedure: as §1, §2, §3, §4, §5, §6, §7

SKNAS = test: MTS proliferation assay, neuroblastoma SKNAS; format: cell-based; settings: Homo sapiens, SK-N-AS
Procedure: as §1, §2, §3, §4, §5, §6, §7

[1] = Crossing of rat blood-brain barrier (FIG. 1); format: in vivo
[2] = Injection formulation administered IV and orally: mouse PK parameters; format: in vivo; settings: for half-life: read-out: t ½ (converted)
[3] = Phase 1 Study S-(1)-02 plasma pharmacokinetics (every 21 days); format: in vivo, human; settings: for half-life / AUC(0-t): human, plasma; for AUC(0-t): read-out: AUC0-24
From the text: Both trials have enrolled patients with advanced solid tumors, non-Hodgkin's lymphoma or Hodgkin's lymphoma that have recurred or progressed following at least standard therapy; patients with malignancies for which there is no standard therapy; patients who are not candidates for standard therapy; or patients who have chosen not to pursue standard therapy. […] Study S-(1)-01 is currently being conducted in the United States. […] Study S-(1)-02 is currently being conducted in the United States and in Israel.
Plasma pharmacokinetics of S-(1) were assessed following the first dose of S-(1) in both studies. Plasma samples were analyzed for S-(1) using a validated LC/MS-MS method.

[4] = system: U251 human CNS tumor cells (glioblastoma); settings: for survivors day 100: QD1, 5, 9; for median day of death and median survival time: intravenous, q4d×3
From the text: Tumor Model: Each animal was implanted with one million U251 human CNS tumor cells from an in vitro cell line by ic injection with a 25 gauge needle. The day of tumor implantation (May 24, 2006) was designated as day 0. A sufficient number of mice were implanted so that animals with body weights in a range as narrow as possible were selected for the trial on the day of treatment initiation (day 1 after tumor implantation). Animals were randomly assigned to the treatment groups and individually identified by earmark codes.
A portion of this solution was then diluted with the complete vehicle to achieve the lower dosing concentration of 1.2 mg/mL. […] Temozolomide (Temodar, Schering Corporation) was prepared on each day of injection in Klucel+tween 80 at a concentration of 4 mg/mL. Temozolomide was administered within 5 minutes of formulation on the basis of exact body weight using a volume of 0.2 mL/10 g of body weight.
Data Collection: Animal health surveillance was conducted and mortality data were collected daily. The animals were weighed twice weekly starting with the first day of treatment.
Study Duration: The study was terminated 100 days after tumor implantation. Any animal found moribund or whose body weight dropped below 14 g was euthanized prior to study termination.
Parameters Evaluated: Number of 100-day survivors, median day of death, and the increase in lifespan based on median day of death and expressed as a percentage (% ILS), median survival time and the % ILS based on median survival time.

KB = test: MTS proliferation assay, head/neck KB; format: cell-based; settings: Homo sapiens
Procedure: as §1, §2, §3, §4, §5, §6, §7

[5] = mouse, in vivo, Oral 10 mg/kg, injection formulation
[6] = 56 mg/m^2 i.v., first dose, 15:85 Cremophor EL-P/ethanol formulation
[7] = 84 mg/m^2 i.v., first dose, 15:85 Cremophor EL-P/ethanol formulation
[8] = 126 mg/m^2 i.v., first dose, 15:85 Cremophor EL-P/ethanol formulation
[9] = 185 mg/m^2 i.v., first dose, 15:85 Cremophor EL-P/ethanol formulation

Work on `C=C[C@H]1O[C@H]2C[C@H]3OC[C@@]3(OC(C)=O)[C@H]3[C@H](OC(=O)c4ccccc4)[C@]4(C(C)(C)O)CC(OC(=O)[C@H](O)C(CC(C)C)NC(=O)OC(C)(C)C)C(C)=C4[C@H](OC(C)=O)[C@H](O1)[C@]23C` (stereo partly drawn) [S-(1)] yielded an IC50 (KBV (MDR+)) of 553 nM, an IC50 (MESSA) of 2.9 nM and an IC50 (FADU) of 21 nM. It also gave an IC50 (PC-3) of 0.03 nM, an IC50 (MDA435s) of 10 nM and an IC50 (SKNAS) of 11 nM. The “crossing of blood-brain barrier” value [1] was “crosses rat blood-brain barrier”, the F ([2]; Oral 10 mg/kg vs IV 10 mg/kg) was 47% and the AUC(0-inf) ([2]; mouse, in vivo, IV 10 mg/kg) was 7.74 µM·h. The AUC(0-t) ([2]; mouse, in vivo, IV 10 mg/kg) was 6.3 µM·h, the clearance ([2]; mouse, in vivo, IV 10 mg/kg) was 24.8 mL/min/kg and the Vd ([2]; mouse, in vivo, IV 10 mg/kg, read-out: Vdss) was 13.3 L/kg. For the same compound, the half-life ([2]; mouse, in vivo, IV 10 mg/kg) was 366 min, the AUC(0-inf) [2, 5] was 3.61 µM·h and the AUC(0-t) [2, 5] was 3.43 µM·h. It also gave a Cmax [2, 5] of 460 nM, a Tmax [2, 5] of 6 h and a half-life [2, 5] of 306 min. For the same compound, the Cl [3, 6] was 18.9 ± 9.53 L/hr/m^2, the Vss [3, 6] was 232 ± 93.6 L/m^2 and the Cl [3, 7] was 15.4 L/hr/m^2. It also gave a Vss [3, 7] of 300 L/m^2, a Cl [3, 8] of 22.1 ± 11.2 L/hr/m^2 and a Vss [3, 8] of 166 ± 105 L/m^2. For the same compound, the t1/2 [3, 8] was 6.27 ± 3.64 h, the Cl [3, 9] was 24.7 ± 12.2 L/hr/m^2 and the Vss [3, 9] was 215 ± 116 L/m^2. It also gave a half-life ([3]; intravenous, S-(1)-02 study, all dose groups, read-out: Plasma t1/2 values, range over dose groups) of 206 to 538 min, an AUC(0-t) ([3]; iv, 56 mg/m2, 56 mg/m^2 i.v., first dose, 15:85 Cremophor EL-P/ethanol formulation) of 2530 ± 847 ng·h/mL and a half-life ([3]; iv, 56 mg/m2, 56 mg/m^2 i.v., first dose, 15:85 Cremophor EL-P/ethanol formulation, read-out: t1/2 (converted)) of 538 ± 425 min. It also gave an AUC(0-t) ([3]; iv, 84 mg/m2, 84 mg/m^2 i.v., first dose, 15:85 Cremophor EL-P/ethanol formulation) of 3710 ng·h/mL, an AUC(0-t) ([3]; iv, 126 mg/m2, 126 mg/m^2 i.v., first dose, 15:85 Cremophor EL-P/ethanol formulation) of 6110 ± 3030 ng·h/mL and a half-life ([3]; iv, 126 mg/m2, 126 mg/m^2 i.v., first dose, 15:85 Cremophor EL-P/ethanol formulation, read-out: t1/2 (converted)) of 636 ± 426 min. For the same compound, the AUC(0-t) ([3]; iv, 185 mg/m2, 185 mg/m^2 i.v., first dose, 15:85 Cremophor EL-P/ethanol formulation) was 7260 ± 2620 ng·h/mL, the half-life ([3]; iv, 185 mg/m2, 185 mg/m^2 i.v., first dose, 15:85 Cremophor EL-P/ethanol formulation, read-out: t1/2 (converted)) was 206 ± 439 min and the “survivors day 100” value ([4]; S-(1) 12 mg/kg) was 100 = 0). The “median day of death and median survival time” value ([4]; S-(1) 12 mg/kg/dose) was 14.5 days, the “survivors day 100” value ([4]; S-(1) 20 mg/kg) was 100 = 0) and the “median day of death and median survival time” value ([4]; S-(1) 20 mg/kg/dose) was 16 days. For the same compound, the “effect against the U251 human CNS tumor cells (in words)” value ([4]; monotherapy or combination as dosed in the study) was “moderate effect” and the IC50 (KB) was 9.4 nM.
